Measured values reported in US7754772B2, “Nitrosated nonsteroidal antiinflammatory compounds, compositions and methods of use” (NicOx, S.A., priority 2002, dated 2010).

Columns and labels:
[1] = test system: Male Sprague Dawley rats, gastric hemorrhagic lesion; assay: rat gastric lesion test; settings: rat fasted 24 hours, oral gavage, lesion score (summed length, mm) three hours after dosing; ratio relative to parent NSAID (Naproxen = 1)
Procedure: Male Sprague Dawley rats (Charles River Laboratories, Wilmington, Mass.) weighing 230-250 g were used for the experiments. The rats were housed with laboratory chow and water ad libitum prior to the study. The rats were fasted for 24 hours with free access to water and then dosed by oral gavage with vehicle or with test compounds given at a volume of 0.5 mL/100 g. […] Rats were euthanized by CO2 three hours after dosing. The stomachs were dissected along the greater curvature, washed with a directed stream of 0.9% saline and pinned open on a sylgard based petri dish for examination of the hemorrhagic lesion. Gastric lesion score was expressed in mm and calculated by summing the length of each lesion.

| Compound | Relative Activity Gastric Lesion [1] | melting point [°C] |
| --- | --- | --- |
| COc1ccc2cc([C@H](C)C(=O)OCCSCCO[N+](=O)[O-])ccc2c1 [Example 1, 2-(2-(Nitrooxy)ethylthio)ethyl (2S)-2-(6-methoxy(2-naphthyl))propanoate] | 0.32 | 33 to 37 |
| COc1ccc2cc([C@H](C)C(=O)OCC(=O)COC(=O)c3ccc(CO[N+](=O)[O-])cc3)ccc2c1 [Example 11, 3-(4-((Nitrooxy)methyl)phenylcarbonyloxy)-2-oxopropyl (2S)-2-(6-methoxy(2-naphthyl))propanoate] | – | 105 to 107 |
| COc1ccc2cc([C@H](C)C(=O)OCC(CO[N+](=O)[O-])(CO[N+](=O)[O-])[N+](=O)[O-])ccc2c1 [Example 13, 2-Nitro-3-(nitrooxy)-2-((nitrooxy)methyl)propyl (2S)-2-(6-methoxy(2-naphthyl))propanoate] | 0.55 | 69 to 71 |
| COc1ccc2cc([C@H](C)C(=O)OCCOC(=O)NCCO[N+](=O)[O-])ccc2c1 [Example 14, 2-(N-(2-(Nitrooxy)ethyl)carbamoyloxy)ethyl (2S)-2-(6-methoxy(2-naphthyl))propanoate] | 0.15 | 56 to 57 |
| COc1ccc2cc([C@H](C)C(=O)OCC(=O)N(C)CCO[N+](=O)[O-])ccc2c1 [Example 17, (N-Methyl-N-(2-(nitrooxy)ethyl)carbamoyl)methyl (2S)-2-(6-methoxy(2-naphthyl))propanoate] | – | 80 to 81 |
| CCN(CCO[N+](=O)[O-])C(=O)COC(=O)[C@@H](C)c1ccc2cc(OC)ccc2c1 [Example 18, (N-Ethyl-N-(2-(nitrooxy)ethyl)carbamoyl)methyl (2S)-2-(6-methoxy(2-naphthyl))propanoate] | 0.25 | 60 to 61 |
| COc1ccc2cc([C@H](C)C(=O)OCC(=O)N(C)CC(=O)OCCO[N+](=O)[O-])ccc2c1 [Example 20, (N-Methyl-N-(((2-(nitrooxy)ethyl)oxycarbonyl)methyl)carbamoyl)methyl (2S)-2-(6-methoxy(2-naphthyl))propanoate] | 0.03 | 71 to 73 |
| COc1ccc2cc([C@H](C)C(=O)OCC(=O)N(C)CC(=O)OCCCO[N+](=O)[O-])ccc2c1 [Example 21, (N-Methyl-N-(((3-(nitrooxy)propyl)oxycarbonyl)methyl)carbamoyl)methyl (2S)-2-(6-methoxy(2-naphthyl))propanoate] | 0.19 | 41 to 43 |
| COc1ccc2cc([C@H](C)C(=O)OCC(=O)N(C)CC(=O)NCCO[N+](=O)[O-])ccc2c1 [Example 22, (N-Methyl-N-((N-(2-(nitrooxy)ethyl)carbamoyl)methyl)carbamoyl)methyl (2S)-2-(6-methoxy(2-naphthyl))propanoate] | – | 79 to 81 |
| COc1ccc2cc(C(C)C(=O)OCC(=O)OCCO[N+](=O)[O-])ccc2c1 (stereo not shown) [Example 23, ((2-(Nitrooxy)ethyl)oxycarbonyl)methyl 2-(6-methoxy-2-naphthyl)propanoate] | – | 44 to 45 |
| COc1ccc2cc(C(C)C(=O)OCC(=O)NCCCO[N+](=O)[O-])ccc2c1 (stereo not shown) [Example 24, (N-(3-(Nitrooxy)propyl)carbamoyl)methyl 2-(6-methoxy-2-naphthyl)propanoate] | – | 51 to 53 |
| COc1ccc2cc([C@H](C)C(=O)OC[C@@H](CO[N+](=O)[O-])O[N+](=O)[O-])ccc2c1 [Example 27c, (2S)-2,3-Bis(nitrooxy)propyl (2S)-2-(6-methoxy(2-naphthyl))propanoate] | 0.20 | – |
| COc1ccc2cc([C@H](C)C(=O)OCC(=O)COC(=O)Cc3ccc(CO[N+](=O)[O-])cc3)ccc2c1 [Example 30, 3-(2-(4-((Nitrooxy)methyl)phenyl)acetyloxy)-2-oxopropyl (2S)-2-(6-methoxy(2-naphthyl))propanoate] | – | 92 to 95 |
| COc1ccc2cc([C@H](C)C(=O)Oc3ccc(C(=O)OCCO[N+](=O)[O-])cc3)ccc2c1 [Example 32, 4-((2-(Nitrooxy)ethyl)oxycarbonyl)phenyl (2S)-2-(6-methoxy(2-naphthyl))propanoate] | 0.06 | – |
| COc1ccc2cc([C@H](C)C(=O)OCC(=O)N(C)CCCO[N+](=O)[O-])ccc2c1 [Example 34, (N-methyl-N-(3-(nitrooxy)propyl)carbamoyl)methyl (2S)-2-(6-methoxy(2-naphthyl))propanoate] | 0.02 | 104 to 105 |
| COc1ccc2cc([C@H](C)C(=O)OCCOC(=O)C(=O)OCCCO[N+](=O)[O-])ccc2c1 [Example 40, 2-((2S)-2-(6-Methoxy(2-naphthyl))propanoyloxy)ethyl 3-(nitrooxy)-propyl ethane-1,2-dioate] | – | 55 to 58 |
| COc1ccc2cc([C@H](C)C(=O)NNC(=O)CCCO[N+](=O)[O-])ccc2c1 [Example 41, N-((2S)-2-(6-Methoxy(2-naphthyl))propanoylamino)-4 (nitrooxy)butanamide] | – | 117 to 119 |
| COc1ccc2cc([C@H](C)C(=O)OCCN(C)C(=O)c3ccc(CO[N+](=O)[O-])cc3)ccc2c1 [Example 45, 2-(N-Methyl(4-((nitrooxy)methyl)phenyl)carbonylamino)ethyl (2S)-2-(6-methoxy(2-naphthyl))propanoate] | – | 108 to 115 |
| COc1ccc2c(c1)c(CC(=O)O[C@H]1CO[C@H]3[C@H]1OC[C@H]3O[N+](=O)[O-])c(C)n2C(=O)c1ccc(Cl)cc1 [Example 46, (1S,2S,5S,6R)-6-(Nitrooxy)-4,8-dioxabicyclo(3.3.0)oct-2-yl 2-(1-((4 chlorophenyl)carbonyl)-5-methoxy-2-methylindol-3-yl)acetate] | – | 159 to 160 |
| COc1ccc2cc([C@H](C)C(=O)OCCN(CCO[N+](=O)[O-])S(=O)(=O)c3ccc(C)cc3)ccc2c1 [Example 48, 2-(((4-Methylphenyl)sulfonyl)(2-(nitrooxy)ethyl)amino)ethyl (2S)-2-(6-methoxy(2-naphthyl))propanoate] | – | 92 to 95 |
| COc1ccc2cc([C@H](C)C(=O)SCCCCO[N+](=O)[O-])ccc2c1 [Example 54, (2S)-2-(6-methoxy(2-naphthyl))-1-(4-(nitrooxy)butylthio)propan-1-one] | – | 30 to 35 |
| COc1ccc2c(c1)c(CC(=O)OCC(=O)NCCO[N+](=O)[O-])c(C)n2C(=O)c1ccc(Cl)cc1 [Example 56, (N-(2-(Nitrooxy)ethyl)carbamoyl)methyl 2-(1-((4-chlorophenyl)carbonyl)-5-methoxy-2-methylindol-3-yl)acetate] | – | 128 to 129 |
| O=C(COC(=O)Cc1ccccc1Nc1c(Cl)cccc1Cl)NCCO[N+](=O)[O-] [Example 57, (N-(2-(Nitrooxy)ethyl)carbamoyl)methyl 2-(2-((2,6-dichlorophenyl)amino)phenyl)acetate] | – | 81 to 83 |
| COc1ccc2cc([C@H](C)C(=O)O)ccc2c1 [Naproxen, (2S)-2-(6-methoxy(2-naphthyl))propanoic acid, reference compound] | 1 | – |
